Several values for one entry are separate records, joined by “and”; a condition that tells them apart may be missing. Identical values can stand only once.
Tested on: BCL-2 WT
Test: Steady-state competition SPR against immobilised BIMBH3 peptide, BCL-2 WT
Assay type: binding, human
Experimental: SPR experiments were performed as previously described. […] The lowest concentrations used in direct binding experiments were 1 nM for BIAcore 4000 and 0.1 nM for BIAcore S200 instruments, concentrations below these were below the sensitivity thresholds for the instruments. […] Direct binding experiments were fitted to a 1:1 binding site kinetic model, fitting on and off rates, in BIAevaluation software. For competition experiments steady-state responses were determined in BIAevaluation software according to the software defaults in affinity evaluation mode averaging responses for 5 sec. […] All affinity measurements were performed in at least two independent experiments using independent protein preparations.

Q: Which “S55746 binding weaker than venetoclax” value (BCL-2 WT) does the source give for `O=C(c1cc(-c2cc3c(cc2C(=O)N2Cc4ccccc4C[C@H]2CN2CCOCC2)OCO3)n2c1CCCC2)N(c1ccccc1)c1ccc(O)cc1` [S55746] here?
A: Its value is > 10 fold and 10 fold.

Q: What about the “Raw data values in Figure 3f (SPR response)” value (from here on “Raw data values in Figure 3f”) (S55746 concentration 20, BCL-2 concentration 1 nM, independent experiment 2) of the same compound?
A: The value was 2.733.

Q: And the “Raw data values in Figure 3f” value (S55746 concentration 20, BCL-2 concentration 3 nM, independent experiment 2)?
A: Its value is 5.054.

Q: And the “Raw data values in Figure 3f” value (S55746 concentration 20, BCL-2 concentration 4 nM, independent experiment 2)?
A: Its value is 7.385.

Q: And the “Raw data values in Figure 3f” value (S55746 concentration 20, BCL-2 concentration 6 nM, independent experiment 2)?
A: The value was 10.4479.

Q: What about the “Raw data values in Figure 3f” value (S55746 concentration 20, BCL-2 concentration 8 nM, independent experiment 2) of the same compound?
A: Its value is 13.83.

Q: What about the “Raw data values in Figure 3f” value (S55746 concentration 20, BCL-2 concentration 9 nM, independent experiment 2) of the same compound?
A: Its value is 18.2167.

Q: And the “Raw data values in Figure 3f” value (S55746 concentration 20, BCL-2 concentration 10 nM, independent experiment 1)?
A: The value was 14.9942.

Q: And the “Raw data values in Figure 3f” value (S55746 concentration 20, BCL-2 concentration 10 nM, independent experiment 3)?
A: The value was 5.545.

Q: And the “Raw data values in Figure 3f” value (S55746 concentration 20, BCL-2 concentration 11 nM, independent experiment 2)?
A: Its value is 22.9055.

Q: What about the “Raw data values in Figure 3f” value (S55746 concentration 20, BCL-2 concentration 12 nM, independent experiment 2) of the same compound?
A: Its value is 29.6258.

Q: And the “Raw data values in Figure 3f” value (S55746 concentration 20, BCL-2 concentration 16 nM, independent experiment 2)?
A: Its value is 52.2757.

Q: And the “Raw data values in Figure 3f” value (S55746 concentration 20, BCL-2 concentration 20 nM, independent experiment 1)?
A: The value was 62.0337.

Q: What about the “Raw data values in Figure 3f” value (S55746 concentration 20, BCL-2 concentration 20 nM, independent experiment 3) of the same compound?
A: The value was 30.5673.

Q: What about the “Raw data values in Figure 3f” value (S55746 concentration 20, BCL-2 concentration 24 nM, independent experiment 2) of the same compound?
A: The value was 194.711.

Q: What about the “Raw data values in Figure 3f” value (S55746 concentration 20, BCL-2 concentration 30 nM, independent experiment 1) of the same compound?
A: Its value is 78.5463.

Q: And the “Raw data values in Figure 3f” value (S55746 concentration 20, BCL-2 concentration 30 nM, independent experiment 3)?
A: Its value is 46.9544.

Q: What about the “Raw data values in Figure 3f” value (S55746 concentration 20, BCL-2 concentration 40 nM, independent experiment 1) of the same compound?
A: The value was 84.3215.

Q: And the “Raw data values in Figure 3f” value (S55746 concentration 20, BCL-2 concentration 40 nM, independent experiment 2)?
A: The value was 278.992.

Q: And the “Raw data values in Figure 3f” value (S55746 concentration 20, BCL-2 concentration 40 nM, independent experiment 3)?
A: The value was 55.2753.

Q: What about the “Raw data values in Figure 3f” value (S55746 concentration 20, BCL-2 concentration 50 nM, independent experiment 1) of the same compound?
A: The value was 87.889.

Q: What about the “Raw data values in Figure 3f” value (S55746 concentration 20, BCL-2 concentration 50 nM, independent experiment 3) of the same compound?
A: The value was 61.4638.

Q: What about the “Raw data values in Figure 3f” value (S55746 concentration 20, BCL-2 concentration 60 nM, independent experiment 1) of the same compound?
A: The value was 89.8444.

Q: What about the “Raw data values in Figure 3f” value (S55746 concentration 20, BCL-2 concentration 60 nM, independent experiment 3) of the same compound?
A: Its value is 66.5259.

Q: And the “Raw data values in Figure 3f” value (S55746 concentration 20, BCL-2 concentration 70 nM, independent experiment 1)?
A: Its value is 91.3513.

Q: And the “Raw data values in Figure 3f” value (S55746 concentration 20, BCL-2 concentration 70 nM, independent experiment 3)?
A: The value was 70.0896.

Q: And the “Raw data values in Figure 3f” value (S55746 concentration 20, BCL-2 concentration 80 nM, independent experiment 1)?
A: The value was 91.9809.

Q: And the “Raw data values in Figure 3f” value (S55746 concentration 20, BCL-2 concentration 80 nM, independent experiment 3)?
A: The value was 71.977.

Q: What about the “Raw data values in Figure 3f” value (S55746 concentration 20, BCL-2 concentration 100 nM, independent experiment 1) of the same compound?
A: The value was 93.8895.

Q: And the “Raw data values in Figure 3f” value (S55746 concentration 20, BCL-2 concentration 100 nM, independent experiment 3)?
A: Its value is 77.7314.

Q: And the “Raw data values in Figure 3f” value (S55746 concentration 20, BCL-2 concentration 150 nM, independent experiment 1)?
A: The value was 96.8618.

Q: What about the “Raw data values in Figure 3f” value (S55746 concentration 20, BCL-2 concentration 150 nM, independent experiment 3) of the same compound?
A: Its value is 85.769.

Q: What about the “Raw data values in Figure 3f” value (S55746 concentration 20, BCL-2 concentration 200 nM, independent experiment 1) of the same compound?
A: The value was 97.7551.

Q: What about the “Raw data values in Figure 3f” value (S55746 concentration 20, BCL-2 concentration 200 nM, independent experiment 3) of the same compound?
A: The value was 90.6286.

Q: And the “Raw data values in Figure 3f” value (S55746 concentration 40, BCL-2 concentration 1 nM, independent experiment 2)?
A: Its value is 1.748.

Q: What about the “Raw data values in Figure 3f” value (S55746 concentration 40, BCL-2 concentration 3 nM, independent experiment 2) of the same compound?
A: Its value is 3.274.

Q: And the “Raw data values in Figure 3f” value (S55746 concentration 40, BCL-2 concentration 4 nM, independent experiment 2)?
A: Its value is 4.7441.

Q: And the “Raw data values in Figure 3f” value (S55746 concentration 40, BCL-2 concentration 6 nM, independent experiment 2)?
A: Its value is 5.884.

Q: What about the “Raw data values in Figure 3f” value (S55746 concentration 40, BCL-2 concentration 8 nM, independent experiment 2) of the same compound?
A: Its value is 7.971.

Q: And the “Raw data values in Figure 3f” value (S55746 concentration 40, BCL-2 concentration 9 nM, independent experiment 2)?
A: The value was 9.582.

Q: And the “Raw data values in Figure 3f” value (S55746 concentration 40, BCL-2 concentration 10 nM, independent experiment 1)?
A: The value was 5.808.

Q: What about the “Raw data values in Figure 3f” value (S55746 concentration 40, BCL-2 concentration 10 nM, independent experiment 3) of the same compound?
A: Its value is 2.581.

Q: And the “Raw data values in Figure 3f” value (S55746 concentration 40, BCL-2 concentration 11 nM, independent experiment 2)?
A: The value was 11.5501.

Q: What about the “Raw data values in Figure 3f” value (S55746 concentration 40, BCL-2 concentration 12 nM, independent experiment 2) of the same compound?
A: The value was 13.3285.

Q: What about the “Raw data values in Figure 3f” value (S55746 concentration 40, BCL-2 concentration 16 nM, independent experiment 2) of the same compound?
A: Its value is 18.1319.

Q: What about the “Raw data values in Figure 3f” value (S55746 concentration 40, BCL-2 concentration 20 nM, independent experiment 1) of the same compound?
A: The value was 14.077.

Q: And the “Raw data values in Figure 3f” value (S55746 concentration 40, BCL-2 concentration 20 nM, independent experiment 3)?
A: The value was 5.653.

Q: And the “Raw data values in Figure 3f” value (S55746 concentration 40, BCL-2 concentration 24 nM, independent experiment 2)?
A: The value was 35.953.

Q: What about the “Raw data values in Figure 3f” value (S55746 concentration 40, BCL-2 concentration 30 nM, independent experiment 1) of the same compound?
A: Its value is 36.4319.

Q: And the “Raw data values in Figure 3f” value (S55746 concentration 40, BCL-2 concentration 30 nM, independent experiment 3)?
A: The value was 15.4804.

Q: And the “Raw data values in Figure 3f” value (S55746 concentration 40, BCL-2 concentration 40 nM, independent experiment 1)?
A: The value was 75.4873.

— PMC6547681 (Nature Communications, 2019)
